According to article PMC10223284, “Category-Based Toxicokinetic Evaluations of Data-Poor Per- and Polyfluoroalkyl Substances (PFAS) using Gas Chromatography Coupled with Mass Spectrometry” (Toxics, 2023):
“And” between values parts separate entries of the source, which are not always exact repeats. Equal values may be shown once. Read-outs that look alike come from different tables or passages of the source.

Tests used:
human plasma [1] = test: Ultracentrifugation (UC) plasma protein binding assay, fraction unbound in plasma (fup); details: for Aqueous Fraction / Aqueous Fraction, Run-specific Avg: amount measured in aqueous fraction after ultracentrifugation, unit not given; for Aqueous Fraction: replicates A, B, C; for Aqueous Fraction, Run-specific Avg: run average; for fup: human plasma, 10 μM, ultracentrifugation, 37 °C; for Fup.Med: median fraction unbound in plasma; for Fup.Med / Fup.point: UC assay Level4; for Fup.point: point estimate of fraction unbound in plasma
[2] = Hepatic metabolic stability (hepatocyte clearance) assay, substrate depletion; format: in vitro ADME, human; details: both sexes, human; for half-life at 1 μM: read-out: Linear Regression Results, Best-Fit Values, Half Life
Summary of the method: (§1)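 Pooled 50-donor human cryopreserved hepatocytes (50,000 cells/100 μL) incubated with 1 μM compound at 37 °C with shaking. Parent loss quantified against internal standards over time to T240 in triplicate; T½ and Clint (μL/min/million cells) from ln concentration vs time, corrected for abiotic loss in cell-free and inactivated-hepatocyte controls.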

[3] = test system: pooled human cryopreserved primary hepatocyte suspensions; test: as above; format: in vitro ADME; details: for Linear Regression Results, Best-Fit Values, Slope: hepatocyte time course
Summary of the method: as §1

in vitro = details: both, human, plasma
human primary cells = details: cited from earlier work
[4] = Abiotic loss in negative controls of the hepatocyte clearance assay (cell-free media, metabolically inactivated hepatocytes); format: in vitro ADME; details: for Hep_Stab_Fail: flag for stability failure in hepatocyte clearance assay controls (1 or Fst = fail, 0 = pass)
Summary of the method: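 Test compound at 1 μM incubated at 37 °C with shaking in complete William's medium E, either cell-free or with metabolically inactivated hepatocytes, then quenched with ice-cold acetonitrile for quantitative analysis.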

human plasma [5] = test: Chemical stability in plasma over the UC assay time course (T5hr/T1hr); details: for Time 1 hr / Time 1 hr, Run-specific Avg: amount measured in plasma sample at 1 hr; for Time 1 hr / Time 5 hr: replicates A, B, C; for Time 1 hr / Time 1 hr, Run-specific Avg / Time 5 hr / Time 5 hr, Run-specific Avg: unit not given; for Time 1 hr, Run-specific Avg / Time 5 hr, Run-specific Avg: run average; for Time 5 hr / Time 5 hr, Run-specific Avg: amount measured in plasma sample at 5 hr; for PPB_Stab_Fail: flag for stability failure in the plasma protein binding assay (1 = fail, 0 = pass); for Fstable.Med: median fraction stable in plasma, UC assay Level4
[6] = hepatocytes, background-subtracted, read-out: Bkgd-Sub Clearance (µL/min/106 hepatocytes)
[7] = hepatocytes, hepatocyte clearance, Conc 1000 nM, not background adjusted, read-out: Unadj Clint
[8] = hepatocytes, pooled human hepatocyte suspensions, 1 μM, read-out: In Vitro Clint
[9] = hepatocytes, unadjusted hepatocyte intrinsic clearance, read-out: Unadj in vitro Clint
[10] = hepatocytes, hepatocyte time course, NS = slope not significant, read-out: Linear Regression Results, Best-Fit Values, Clearance
[11] = hepatocytes, hepatocyte time course, NS = slope not significant
[12] = s9, Bayesian analysis median, 1 μM assay concentration (Table S9), read-out: Clint.1.Med
[13] = hepatocyte incubation, Rep 1-3, start conc 1000 nM
[14] = Fraction Unbound (fu), Run-specific Avg, average of one UC run
[15] = Fraction Unbound (fu), individual replicates A, B, C of the UC run named in c8
[16] = Mean fu, fraction unbound in human plasma, ultracentrifugation, some values based on eLOQ
[17] = BioSeek lowest-observed effect concentration used for AED
[18] = minimum lowest-observed effect concentration, BioSeek platform
[19] = buffer, no cells control, 0 vs 240 min, read-out: No Cells BkgdCl, Half Life
[20] = mean T5hr/T1hr ratio in plasma over all replicates/runs
[21] = Mean Fu, mean fraction unbound in human plasma over all UC replicates/runs
[22] = heat treated hepatocytes, Rep 1-3

## OCCC(F)(F)C(F)(F)C(F)(F)C(F)(F)F [4:2 Fluorotelomer alcohol]
Human plasma [1]
  Aqueous Fraction: 1744.82 and 3486.44 and 1261.67
  Aqueous Fraction, Run-specific Avg: 2164.31
  fup: 0.1680
  Fup.Med: 0.235
  Fup.point: 0.231
[2]; [6]
  hepatocyte CLint at 1 μM: 37.7 µL/min/1e6 cells
[2]; [7]
  hepatocyte CLint at 1 μM: 45.6 µL/min/1e6 cells
[2]; [8]
  hepatocyte CLint at 1 μM: 37.7 µL/min/1e6 cells
[2]; [9]
  hepatocyte CLint at 1 μM: 45.6 µL/min/1e6 cells
[2]; [10]
  hepatocyte CLint at 1 μM: 45.6 µL/min/1e6 cells
[2]; [11]
  half-life at 1 μM: 0.506 h
[2]; [12]
  hepatocyte CLint at 1 μM: 306 µL/min/1e6 cells
[3]; [13]
  Concentration (nM), Time 0 min: 12113.7 nM and 7313.14 nM
  Concentration (nM), Time 15 min: 1692.86 nM and 1166.53 nM and 1804.74 nM
  Concentration (nM), Time 30 min: 339.856 nM and 404.508 nM and 458.803 nM
  Concentration (nM), Time 60 min: 47.9903 nM and 38.9317 nM and 58.7749 nM
  Concentration (nM), Time 120 min: 18.0283 nM and 18.9716 nM and 31.4203 nM
  Concentration (nM), Time 240 min: 21.5215 nM and 17.4089 nM and 13.0166 nM
[3]
  Linear Regression Results, Best-Fit Values, Slope: -0.02281
In vitro; [14]
  fraction unbound: 0.17
In vitro; [15]
  fraction unbound: 0.206
In vitro; [16]
  fraction unbound: 0.168
Human primary cells; [17]
  LOEC: 2.00 µM
Human primary cells; [18]
  LOEC: 2 µM
[4]; [19]
  half-life at 1 μM: 2.92 h
[4]
  Hep_Stab_Fail: 0
[4]; no cells control, 0 vs 240 min
  No Cells BkgdCl, Slope: -0.003956
[4]; Rep 1-3
  Negative Controls, No cells (NC), concentration at 0 min: 10000 nM
  Negative Controls, No cells (NC), concentration at 240 min: 3870 nM
Human plasma [5]
  Time 1 hr: 13164.3 and 12271.8 and 13036
  Time 1 hr, Run-specific Avg: 12824.02
  Time 5 hr: 8478.66 and 10253.1 and 9709.96
  Time 5 hr, Run-specific Avg: 9365.87
  PPB_Stab_Fail: 0
  Fstable.Med: 0.21
Human plasma [5]; average of one UC run
  Stability (T5hr/ T1hr), Run-specific Avg: 0.730
Human plasma [5]; [20]
  Mean Stability: 0.740

## NC(=O)C(F)(F)C(F)(F)C(F)(F)F [Heptafluorobutyramide]
Human plasma [1]
  Aqueous Fraction, Run-specific Avg: 5392.01
  fup: 0.6030
  Fup.Med: 0.566
  Fup.point: 0.601
[2]; [6]
  hepatocyte CLint at 1 μM: 19.9 µL/min/1e6 cells
[2]; hepatocytes, hepatocyte clearance, Conc 1000 nM, background adjusted, read-out: Bkgd Adj Clint
  hepatocyte CLint at 1 μM: 19.9 µL/min/1e6 cells
[2]; [7]
  hepatocyte CLint at 1 μM: 19.9 µL/min/1e6 cells
[2]; hepatocytes, hepatocyte intrinsic clearance adjusted for background (abiotic) loss, read-out: Bkgd_adj_Clint
  hepatocyte CLint at 1 μM: 19.9 µL/min/1e6 cells
[2]; [8]
  hepatocyte CLint at 1 μM: 19.9 µL/min/1e6 cells
[2]; [9]
  hepatocyte CLint at 1 μM: 19.9 µL/min/1e6 cells
[2]; [10]
  hepatocyte CLint at 1 μM: 19.9 µL/min/1e6 cells
[2]; [11]
  half-life at 1 μM: 1.16 h
[3]; [13]
  Concentration (nM), Time 0 min: 988.297 nM and 784.776 nM and 618.66 nM
  Concentration (nM), Time 15 min: 550.618 nM and 957.096 nM and 714.95 nM
  Concentration (nM), Time 30 min: 499.471 nM and 561.118 nM and 588.537 nM
  Concentration (nM), Time 60 min: 417.033 nM and 313.668 nM and 348.927 nM
  Concentration (nM), Time 120 min: 201.833 nM and 266.362 nM and 226.765 nM
[3]
  Linear Regression Results, Best-Fit Values, Slope: -0.009975
In vitro; [14]
  fraction unbound: 0.6
In vitro; Fraction Unbound (fu), replicate A, individual replicate A of the UC run dated in c8
  fraction unbound: 0.667
In vitro; Fraction Unbound (fu), replicate B, individual replicate B of the UC run dated in c8
  fraction unbound: 0.57
In vitro; Fraction Unbound (fu), replicate C, individual replicate C of the UC run dated in c8
  fraction unbound: 0.565
In vitro; Mean Fu (fraction unbound), mean over all UC runs and replicates, human plasma
  fraction unbound: 0.603
In vitro; [21]
  fraction unbound: 0.603
In vitro; [16]
  fraction unbound: 0.603
In vitro; Mean fu, fraction unbound in human plasma, used for IVIVE
  fraction unbound: 0.603
Human primary cells; [17]
  LOEC: 20.00 µM
Human primary cells; [18]
  LOEC: 20 µM
[4]
  Hep_Stab_Fail: 0
[4]; Rep 1-3
  Negative Controls, No cells (NC), concentration at 240 min: 409.23 nM and 475.181 nM and 464.709 nM
Human plasma [5]
  Time 1 hr, Run-specific Avg: 9336.10
  Time 5 hr, Run-specific Avg: 8817.96
  PPB_Stab_Fail: 0
  Fstable.Med: 0.999
Human plasma [5]; average of one UC run
  Stability (T5hr/ T1hr), Run-specific Avg: 0.945
Human plasma [5]; [20]
  Mean Stability: 0.963
Human plasma [5]; mean over all UC runs and replicates, human plasma
  Mean Stability (T5hr/T1hr): 0.963

## OCC(F)(F)C(F)(F)C(F)(F)C(F)(F)C(F)(F)C(F)(F)C(F)(F)C(F)(F)CO [1H,1H,10H,10H-Perfluorodecane-1,10-diol]
Human plasma [1]
  Aqueous Fraction: 3710.68 and 3362.14 and 3011.07
  Aqueous Fraction, Run-specific Avg: 3361.30
  fup: 0.0047
  Fup.Med: 0.00408
  Fup.point: 0.00496
Human plasma [1]; single replicate of one UC run (aqueous fraction / Time 5 hr)
  Fraction Unbound (fu), replicates A, B, C: 0.005168 and 0.005301 and 0.003775 and 0.006151 and 0.003351
[2]; [6]
  hepatocyte CLint at 1 μM: 56.6 µL/min/1e6 cells
[2]; [7]
  hepatocyte CLint at 1 μM: 56.6 µL/min/1e6 cells
[2]; [8]
  hepatocyte CLint at 1 μM: 49.9 µL/min/1e6 cells
[2]; [9]
  hepatocyte CLint at 1 μM: 56.6 µL/min/1e6 cells
[2]; [10]
  hepatocyte CLint at 1 μM: 56.6 µL/min/1e6 cells
[2]; [11]
  half-life at 1 μM: 0.408 h
[2]; [12]
  hepatocyte CLint at 1 μM: 115 µL/min/1e6 cells
[3]; [13]
  Concentration (nM), Time 0 min: 503.86 nM and 483.613 nM and 411.089 nM
  Concentration (nM), Time 15 min: 181.506 nM and 316.777 nM and 270.544 nM
  Concentration (nM), Time 30 min: 207.766 nM and 203.542 nM and 107.454 nM
[3]
  Linear Regression Results, Best-Fit Values, Slope: -0.0283
[3]; pooled human hepatocyte suspensions, 1 μM
  In Vitro Clint: 49.86 μL/min/10^6 cells
In vitro; [14]
  fraction unbound: 0.84
In vitro; Fraction Unbound (fu), Run-specific Avg, average of one UC run (run date in line above)
  fraction unbound: 0.00495
In vitro; [15]
  fraction unbound: 0.83
In vitro; Fraction Unbound (fu), replicates A, B, C, single replicate of one UC run (aqueous fraction / Time 5 hr)
  fraction unbound: 0.00438
In vitro; [21]
  fraction unbound: 0.841
In vitro; Mean Fu, mean fraction unbound over all replicates and runs, UC assay, human plasma
  fraction unbound: 0.00469
In vitro; [16]
  fraction unbound: 0.0047
Human primary cells; [17]
  LOEC: 2.00 µM
Human primary cells; [18]
  LOEC: 2 µM
[4]; both sexes, human, heat treated hepatocytes control, 0 vs 240 min, read-out: HT BkgdCl, Half Life
  half-life at 1 μM: 4.63 h
[4]; [19]
  half-life at 1 μM: 3.43 h
[4]
  Hep_Stab_Fail: 0
[4]; heat treated hepatocytes control, 0 vs 240 min
  HT BkgdCl, Slope: -0.002496
[4]; [22]
  Negative Controls, Heat Treated (HT), concentration at 0 min: 370.156 nM and 373.519 nM and 421.129 nM
  Negative Controls, Heat Treated (HT), concentration at 240 min: 211.286 nM and 241.673 nM and 189.092 nM
[4]; no cells control, 0 vs 240 min
  No Cells BkgdCl, Slope: -0.003368
[4]; Rep 1-3
  Negative Controls, No cells (NC), concentration at 0 min: 394.883 nM and 393.112 nM and 400.596 nM
  Negative Controls, No cells (NC), concentration at 240 min: 205.477 nM and 157.76 nM and 169.683 nM
Human plasma [5]
  Time 1 hr: 7311.43 and 5462.42 and 6036.15
  Time 1 hr, Run-specific Avg: 6270.00
  Time 5 hr: 3659.49 and 4052.89 and 4429.19
  Time 5 hr, Run-specific Avg: 3856.19
  PPB_Stab_Fail: 0
  Fstable.Med: 0.997
Human plasma [5]; average of one UC run
  Stability (T5hr/ T1hr), Run-specific Avg: 0.615
Human plasma [5]; average of one UC run (run date in line above)
  Stability (T5hr/ T1hr), Run-specific Avg: 0.958
Human plasma [5]; [20]
  Mean Stability: 0.657
Human plasma [5]; mean T5hr/T1hr ratio over all replicates and runs, plasma
  Mean Stability: 1.003
Human plasma [5]; single replicate of one UC run
  Stability (T5hr/ T1hr), replicates A, B, C: 1.07 and 1.007 and 0.9333 and 0.9811 and 1.003 and 1.254
